Where a name gives a salt, the structure may show the parent alone.

The assay has as its target T1, IRAK-4 enzyme (Homo sapiens, UniProt Q9NWZ3).
T1 construct: purchased Millipore, USA
T1 sequence (Q9NWZ3 1-460): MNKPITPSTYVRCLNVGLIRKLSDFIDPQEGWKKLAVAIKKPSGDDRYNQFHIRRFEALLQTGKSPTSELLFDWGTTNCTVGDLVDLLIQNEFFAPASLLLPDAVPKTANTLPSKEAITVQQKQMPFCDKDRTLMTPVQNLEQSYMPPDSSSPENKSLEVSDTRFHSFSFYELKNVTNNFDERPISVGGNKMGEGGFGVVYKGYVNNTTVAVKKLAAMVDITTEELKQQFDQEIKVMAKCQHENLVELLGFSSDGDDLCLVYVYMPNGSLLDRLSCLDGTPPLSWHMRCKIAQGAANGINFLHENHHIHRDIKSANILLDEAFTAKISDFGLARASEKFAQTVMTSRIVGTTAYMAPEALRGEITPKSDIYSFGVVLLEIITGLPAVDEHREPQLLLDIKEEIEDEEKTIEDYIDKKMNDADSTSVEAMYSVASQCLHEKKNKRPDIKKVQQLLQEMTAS
Put plainly: IRAK-4 Biochemical Assay (TR-FRET). The settings on record: recombinant IRAK-4 kinase, 20 μM ATP; for inhibition at 0.1 µM: 0.1 μM compound; for inhibition at 1 µM: 1 μM compound. The protocol:
Compounds were tested for their potential to inhibit IRAK-4 enzyme in a TR-FRET assay using recombinant IRAK-4 kinase from Millipore, USA. The assay buffer was 50 mM Tris-HCl pH 7.5, 20 mM MgCl2, 1 mM EGTA, 2 mM DTT, 3 mM MnCl2 and 0.01% Tween 20.5 ng of IRAK-4 kinase was used for the assay. After pre-incubation of enzyme with test compound for 30 minutes at room temperature, a substrate mixture containing 100 nM Biotin Histone H3 (Millipore, USA) and 20 μM ATP (Sigma, USA) was added and the reaction was incubated for 30 min. Post incubation, the reaction was stopped by the addition of stop mix containing 40 mM EDTA, 1 nM of Europium-Anti-Phospho-Histone H3 (Ser10) antibody (Perkin Elmer, USA) and 20 nM SureLight Allophycocyanin-Streptavidin (Perkin Elmer, USA). The fluorescence emission at 615 nm and 665 nm were measured at an excitation of 340 nm and the percent inhibition was estimated from the ratio of the fluorescence intensities [(F665/F615)×10000].
The compounds of the present invention were screened in the above mentioned assay and the percent inhibition data is summarized in the Table 1.
A general note: TR-FRET usually uses a lanthanide donor and a delayed reading to cut background.

For orientation: inhibition means the share of the control response that was lost under treatment. For `Cc1nn(C)c2cc(N3CCC(CO)CC3)c(NC(=O)c3coc(-c4cc(F)c(=O)n(C)c4)n3)cc12` [Example 11, 2-(5-fluoro-1-methyl-6-oxo-1,6-dihydropyridin-3-yl)-N-(6-(4-(hydroxymethyl)piperidin-1-yl)-1,3-dimethyl-1H-indazol-5-yl)oxazole-4-carboxamide hydrochloride], the inhibition at 0.1 µM came out at 26% and the inhibition at 1 µM was found to be 59%. Turning to `C=CCOCC1CCN(c2cc3c(cc2NC(=O)c2coc(-c4ccnc(N)c4)n2)c(C)nn3C)CC1` [Example 12, N-(6-(4-((allyloxy)methyl)piperidin-1-yl)-1,3-dimethyl-1H-indazol-5-yl)-2-(2-aminopyridin-4-yl)oxazole-4-carboxamide], the inhibition at 0.1 µM came out at 95% and the inhibition at 1 µM was found to be 96%.

In the case of `Cc1cc(-c2nc(C(=O)Nc3cc4cn(C)nc4nc3N3CCCCC3)co2)ccn1` [Example 13, N-(2-methyl-6-(piperidin-1-yl)-2H-pyrazolo[3,4-b]pyridin-5-yl)-2-(2-methylpyridin-4-yl)oxazole-4-carboxamide hydrochloride], the inhibition at 0.1 µM is 98% and the inhibition at 1 µM amounted to 99%. On the same counts, the results for `Cn1cc2cc(NC(=O)c3cccc(N4CC[C@H](O)C4)n3)c(N3CCCCC3)nc2n1` [Example 14, (S)-6-(3-hydroxypyrrolidin-1-yl)-N-(2-methyl-6-(piperidin-1-yl)-2H-pyrazolo[3,4-b]pyridin-5-yl)picolinamide] are 57% and 94%.

Turning to `Cn1cc2cc(NC(=O)c3cccc(N4CC[C@H](N)C4)n3)c(N3CCCCC3)nc2n1` [Example 15, (S)-6-(3-aminopyrrolidin-1-yl)-N-(2-methyl-6-(piperidin-1-yl)-2H-pyrazolo[3,4-b]pyridin-5-yl)picolinamide], the inhibition at 0.1 µM amounted to 34% and the inhibition at 1 µM was found to be 78%. As to `Cc1cc(-c2nc(C(=O)Nc3cc4cnn(C)c4nc3N3CCCCC3)co2)ccn1` [Example 16, N-(1-methyl-6-(piperidin-1-yl)-1H-pyrazolo[3,4-b]pyridin-5-yl)-2-(2-methylpyridin-4-yl)oxazole-4-carboxamide], the inhibition at 0.1 µM came to 99% and the inhibition at 1 µM came out at 99%. `Cn1cc2cc(NC(=O)c3coc(N4CC[C@H](N)C4)n3)c(N3CCCCC3)nc2n1` [Example 17, (S)-2-(3-aminopyrrolidin-1-yl)-N-(2-methyl-6-(piperidin-1-yl)-2H-pyrazolo[3,4-b]pyridin-5-yl)oxazole-4-carboxamide]: the inhibition at 1 µM turned out to be 90%.

Take `Cn1cc2cc(NC(=O)c3coc(N4CC[C@H](O)C4)n3)c(N3CCCCC3)nc2n1` [Example 18, (S)-2-(3-hydroxypyrrolidin-1-yl)-N-(2-methyl-6-(piperidin-1-yl)-2H-pyrazolo[3,4-b]pyridin-5-yl)oxazole-4-carboxamide]: the inhibition at 1 µM came to 93%.

With `C[C@H](O)Cn1cc(-c2cccc(C(=O)Nc3cc4cn(C)nc4nc3N3CCCCC3)n2)cn1` [Example 19, (S)-6-(1-(2-hydroxypropyl)-1H-pyrazol-4-yl)-N-(2-methyl-6-(piperidin-1-yl)-2H-pyrazolo[3,4-b]pyridin-5-yl)picolinamide], the inhibition at 1 µM was 96%. Still for that read-out and setting: the value for `Cc1cnccc1-c1nc(C(=O)Nc2cc3cn(C)nc3nc2N2CC[C@H](O)C2)co1` [Example 20, (S)—N-(6-(3-hydroxypyrrolidin-1-yl)-2-methyl-2H-pyrazolo[3,4-b]pyridin-5-yl)-2-(3-methylpyridin-4-yl)oxazole-4-carboxamide] was 72%; that for `Cc1cc(-c2nc(C(=O)Nc3cc4cn(C)nc4nc3N3CC[C@H](O)C3)co2)ccn1` [Example 21, (S)—N-(6-(3-hydroxypyrrolidin-1-yl)-2-methyl-2H-pyrazolo[3,4-b]pyridin-5-yl)-2-(2-methylpyridin-4-yl)oxazole-4-carboxamide] was 89%.

Regarding `Cn1cc2cc(NC(=O)c3coc(N4CC[C@H](O)C4)n3)c(C3CC3)nc2n1` [Example 22, (S)—N-(6-cyclopropyl-2-methyl-2H-pyrazolo[3,4-b]pyridin-5-yl)-2-(3-hydroxypyrrolidin-1-yl)oxazole-4-carboxamide], the inhibition at 1 µM was determined as 65%.

With `Cc1cc(-c2nc(C(=O)Nc3cc4cnn(C)c4nc3N3CC[C@H](O)C3)co2)ccn1` [Example 23, (S)—N-(6-(3-hydroxypyrrolidin-1-yl)-1-methyl-1H-pyrazolo[3,4-b]pyridin-5-yl)-2-(2-methylpyridin-4-yl)oxazole-4-carboxamide], the inhibition at 1 µM is 33%.

`Cn1cc2cc(NC(=O)c3coc(-c4ccnc(N)c4)n3)c(N3CCCCC3)nc2n1` [Example 24]: the inhibition at 0.1 µM is 99% and the inhibition at 1 µM turned out to be 99%. Regarding `COCCn1ncc2cc(NC(=O)c3coc(-c4ccnc(C)c4)n3)c(N3CCC(O)CC3)nc21` [Example 25, N-(6-(4-hydroxypiperidin-1-yl)-1-(2-methoxyethyl)-1H-pyrazolo[3,4-b]pyridin-5-yl)-2-(2-methylpyridin-4-yl)oxazole-4-carboxamide], the inhibition at 0.1 µM turned out to be 67% and the inhibition at 1 µM came out at 97%. On the same counts, the results for `Cc1cc(-c2nc(C(=O)Nc3cc4c(C)n(C)nc4nc3N3CCCCC3)co2)ccn1` [Example 26, N-(2,3-dimethyl-6-(piperidin-1-yl)-2H-pyrazolo[3,4-b]pyridin-5-yl)-2-(2-methylpyridin-4-yl)oxazole-4-carboxamide] are 94% and 97%.

As for `Cc1c2cc(NC(=O)c3coc(-c4ccnc(N)c4)n3)c(N3CCCCC3)nc2nn1C` [Example 27, 2-(2-aminopyridin-4-yl)-N-(2,3-dimethyl-6-(piperidin-1-yl)-2H-pyrazolo[3,4-b]pyridin-5-yl)oxazole-4-carboxamide], the inhibition at 0.1 µM turned out to be 97% and the inhibition at 1 µM is 98%. On the same counts, the results for `Cc1cc(-c2nc(C(=O)Nc3cc4c(C)nn(C)c4nc3N3CCC(CO)CC3)co2)ccn1` [Example 28, N-(6-(4-(hydroxymethyl)piperidin-1-yl)-1,3-dimethyl-1H-pyrazolo[3,4-b]pyridin-5-yl)-2-(2-methylpyridin-4-yl)oxazole-4-carboxamide] are 89% and 97%.

`Cc1nn(C)c2nc(N3CCC(CO)CC3)c(NC(=O)c3coc(-c4ccnc(N)c4)n3)cc12` [Example 29, 2-(2-aminopyridin-4-yl)-N-(6-(4-(hydroxymethyl)piperidin-1-yl)-1,3-dimethyl-1H-pyrazolo[3,4-b]pyridin-5-yl)oxazole-4-carboxamide]: the inhibition at 0.1 µM was 97% and the inhibition at 1 µM amounted to 99%. On the same counts, the results for `COCCn1nc(C)c2cc(NC(=O)c3coc(-c4ccnc(N)c4)n3)c(N3CCC(CO)CC3)nc21` [Example 30, 2-(2-aminopyridin-4-yl)-N-(6-(4-(hydroxymethyl)piperidin-1-yl)-1-(2-methoxyethyl)-3-methyl-1H-pyrazolo[3,4-b]pyridin-5-yl)oxazole-4-carboxamide] are 86% and 99%.

Take `CN1CCN(CCn2ncc3cc(NC(=O)c4coc(-c5ccnc(N)c5)n4)c(N4CCC(O)CC4)cc32)CC1` [Example 31, 2-(2-aminopyridin-4-yl)-N-(6-(4-hydroxypiperidin-1-yl)-1-(2-(4-methylpiperazin-1-yl)ethyl)-1H-indazol-5-yl)oxazole-4-carboxamide hydrochloride]: the inhibition at 0.1 µM is 99% and the inhibition at 1 µM was 99%.

As to `O=C(Nc1cc2cnn(C3CCNCC3)c2cc1C1CC1)c1cccc(N2CCC(O)C2)n1` (centres unmarked) [Example 32, N-(6-cyclopropyl-1-(piperidin-4-yl)-1H-indazol-5-yl)-6-(3-hydroxypyrrolidin-1-yl)picolinamide hydrochloride], the inhibition at 0.1 µM was determined as 19% and the inhibition at 1 µM was determined as 80%. For `Cn1ncc2cc(NC(=O)c3cccc(N4CCC(O)C4)n3)c(N3CCCCC3)cc21` (centres unmarked) [Example 33, 6-(3-hydroxypyrrolidin-1-yl)-N-(1-methy-6-(piperidin-1-yl)-1H-indazol-5-yl)picolinamide], the inhibition at 0.1 µM was found to be 43% and the inhibition at 1 µM amounted to 81%. On the same counts, the results for `C=CCOCC1CCN(c2cc3c(cc2NC(=O)c2coc(-c4cccc(N)n4)n2)c(C)nn3C)CC1` [Example 34] are 25% and 46%.

For the origin of these results see patent US20180201609A1 (AURIGENE DISCOVERY TECHNOLOGIES LIMITED, priority 2015, published 2018).
